# What was measured:
# [1] = cynomolgus monkey, in vivo, sc
# Procedure: (§1) Microneedle transdermal patches coated with various formulations of the PTHrP analogue of SEQ ID NO:1 were provided ready for use and stored refrigerated at 2-8° C. At least one hour prior to use, the transdermal patches in individual pouches were placed at room temperature. Eight female non-naïve Chinese Cynomolgus monkeys (2-4 kg at time of dosing) were included in the study. The same eight animals were used to test each formulation, with a three day washout period between tests.
# (§2) Time points were calculated from the time of patch application at 5 minutes, 10 minutes, 20 minutes, 30 minutes, 1 hour, and 1.5 hours post-dose. A time point of pre-dose was taken at Day 1. 1.5 mL of whole blood was collected at each time point. K3EDTA/aprotinin was used as an anti-coagulant.
# (§3) Each animal received a fixed dose of SEQ ID NO:1 without correcting for body weight. The dose administration was performed as follows:
# (§4) Day 1: Test material was delivered by application of a transdermal patch. The skin was prepared 24 hours prior to each transdermal patch application as follows: a small area (5×5 cm) of the dorsal flank was prepared by close clipping of the hair with a small animal clipper. Care was taken during the clipping procedure to avoid abrasion of the skin. Both sides of the dorsal flank (thigh) were prepared for each administration to ensure a side without skin irritation was used for dose administration. Fifteen (15) minutes prior to patch application the skin was wiped with an alcohol swab. Extra care was taken to ensure the collar of the path was firmly attached to the applicator prior to application and that the transdermal patch was firmly seated on the leg for administration.
# (§5) The skin was prepared 24 hours prior to each transdermal patch application as described above. Extra care was taken to ensure the collar of the path is firmly attached to the applicator prior to application and that the transdermal patch was firmly seated on the leg for administration.
# (§6) A line was drawn around the site of administration to enable post dose observations. After patch removal, the transdermal patch was analyzed for residual content.
# (§7) Any abnormalities were recorded by exception and reported immediately. Each dose site at pre-dose, 1 hour and 24 hours post-dose was scored using the Draize scoring system. Body weights of the animals were recorded prior to Day 1.
# (§8) All blood samples were collected from a peripheral vessel. At Day 1, 1.5 mL of whole blood was collected pre-dose into a K3EDTA/aprotinin tube containing 15 μL (of 2.5 mg protein/mL/aprotinin solution) per ml of whole blood. […] Whole blood samples were collected within ±5% of the scheduled collection time, with actual collection times recorded. Samples were kept on wet ice until processed.
# (§9) The whole blood samples were processed to plasma. […] Plasma samples were transferred to two approximately equal aliquots (aliquot 1 and aliquot 2). Samples were frozen at −70° C.±10° C.
# in vivo = details: female, Chinese Cynomolgus, cynomolgus monkey, sc
# Procedure: as §1, §2, §3, §4, §5, §6, §7, §8, §9
smiles,measurement,setting,value
"CC[C@H](C)[C@H](NC(=O)[C@H](CO)NC(=O)[C@H](CCCCN)NC(=O)CNC(=O)[C@H](CCCCN)NC(=O)[C@H](CC(=O)O)NC(=O)[C@H](Cc1cnc[nH]1)NC(=O)[C@H](CC(C)C)NC(=O)[C@H](CC(C)C)NC(=O)[C@H](CCC(N)=O)NC(=O)[C@H](Cc1cnc[nH]1)NC(=O)[C@H](CCC(=O)O)NC(=O)[C@H](CO)NC(=O)[C@@H](NC(=O)[C@H](C)N)C(C)C)C(=O)N[C@@H](CCC(N)=O)C(=O)N[C@@H](CC(=O)O)C(=O)N[C@@H](CC(C)C)C(=O)N[C@@H](CCCNC(=N)N)C(=O)N[C@@H](CCCNC(=N)N)C(=O)N[C@@H](CCCNC(=N)N)C(=O)N[C@@H](CCC(=O)O)C(=O)N[C@@H](CC(C)C)C(=O)N[C@@H](CC(C)C)C(=O)N[C@@H](CCC(=O)O)C(=O)N[C@@H](CCCCN)C(=O)N[C@@H](CC(C)C)C(=O)N[C@@H](CC(C)C)C(=O)NC(C)(C)C(=O)N[C@@H](CCCCN)C(=O)N[C@@H](CC(C)C)C(=O)N[C@@H](Cc1cnc[nH]1)C(=O)N[C@H](C(=O)N[C@@H](C)C(N)=O)[C@@H](C)O [Abaloparatide, [Glu^22,25, Leu^23,28,31, Aib^29, Lys^26,30]hPTHrP(1-34)NH2]",AUC,[1],131610
same,Cmax,in vivo,3.34 ng/mL
same,Tmax,in vivo,7 min
same,half-life,in vivo,14 min
same,level at 5 min,in vivo,1.9 ng/mL
same,level at 10 min,in vivo,0.88 ng/mL
same,level at 20 min,in vivo,0.542 ng/mL
same,level at 0.5 h,in vivo,0.222 ng/mL
same,level at 1 h,in vivo,0.12 ng/mL

# — patent publication US20230277444A1, “FORMULATIONS OF PTHrP ANALOGUES, TRANSDERMAL PATCHES THEREOF, AND USES THEREOF” (priority 2018, published 2023)
